This passage reports TGI and GI50 results from PubChem BioAssay (NCI).

Holding throughout (assay): NCI tumour cell line growth inhibition, 48 h
Test [1] concerns 786-0 renal.
The subject of test [2] is M19-MEL melanoma.
Test [3] concerns DLD-1 colon.
Test [4] deals with KM20L2 colon.
Test [5] concerns LXFL 529 NSCLC.
Test [6] has as its system DMS 114 small cell lung.
Test [7] relates to SNB-78 CNS.
Test [8] deals with MDA-MB-231 breast.
Test [9] concerns BT-549 breast.
For test [10], the system named is MDA-MB-435.
Test [11] has as its system HS 578T breast.
Test [12] relates to DU-145 prostate.
Test [13] deals with T-47D breast.

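Growth conditions: 96-well plates. Treatment: test compound, 48 hours, 5 concentrations. Analysis: linear interpolation between bracketing concentrations; unreached endpoints set to highest concentration. Here, GI50 denotes the concentration required for 50% inhibition of growth. At the TGI there is no net growth.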

On to `NC1=NS(=O)(=O)Nc2nc(-c3cccs3)[nH]c21`, for which the TGI in test [1], in [2], in test [3], in test [4] and in [5] was over 100 µM each time.
`C=C1C(=O)OC2/C=C(\C)CC(O)/C=C(/CO)CC(OC(=O)/C(C)=C/C)C12` (stereo not given): the TGI in test [6] turned out to be 30.5 µM; in test [2] it was 92 µM; in [3], 139 µM; in test [4], 246 µM; in [7], 319 µM.
On to `O=C(/N=C/c1c(O)c2ccccc2oc1=O)NC1CCCCC1`, for which the TGI in test [6], in [2], in test [4], in test [7] and in test [5] was over 100 µM in each case.
Regarding `CC(O)=NC(Cc1ccc2ccccc2c1)C(O)=NC(Cc1ccc(Cl)cc1)C(O)=NC(Cc1c[nH]c2ccccc12)C(O)=NC(CO)C(O)=NC(Cc1ccc(O)cc1)C(O)=NC(CCCN=C(N)N)C(O)=NC(CC(C)C)C(O)=NC(CCCN=C(N)N)C(=O)N1CCCC1C(O)=NC(C)C(=N)O` (stereo not given), the TGI in [8], in test [9], in test [10], in [1], in test [11] and in test [12] was over 100 µM throughout.
With `Cc1onc(-c2c(F)cccc2Cl)c1C(=O)N[C@@H]1C(=O)N2[C@@H]1SC(C)(C)[C@@H]2C(=O)O`, the TGI in [13], in test [8], in test [9], in test [10], in test [1] and in test [11] was over 100 µM throughout. Also, in test [12], the TGI is over 100 µM.
As to `CC(C)Cc1cccc(C(C)C)c1NC(=O)CCC(=O)N/N=C1\C(=N/NC(=O)CCC(=O)Nc2c(C(C)C)cccc2C(C)C)C(c2ccc3c(c2)OCO3)Oc2ccccc21` (stereo not given), the TGI in test [6], in test [2], in test [3], in [4], in test [7] and in [5] was over 100 µM throughout.
Consider `FC(F)(F)C1=NC(=NNc2nnc(-c3ccccc3)c(-c3ccccc3)n2)N=C(C(F)(F)F)C1`, for which the TGI in [6] was 28.2 µM; in test [2], over 68.4 µM; in [3], over 100 µM; in [4], over 100 µM; in test [7], over 100 µM.
In the case of `CS(=O)(=O)OCc1c(O)c2c(c(O)c1COS(C)(=O)=O)C(=O)C=CC2=O`, the TGI in test [6], in [3], in test [4], in test [7] and in test [5] was over 100 µM each time.
In the case of `O=c1cc(-c2nc3ccccc3[nH]2)[nH]c2nc(-c3nc4ccccc4[nH]3)cc(-c3ccc(Cl)cc3)c12`, the TGI in test [13] was 83.5 µM; in [8] it was 35.7 µM; in test [9] it was over 100 µM; in [10], 35.3 µM; in test [11], over 100 µM; in [12], over 100 µM.
For the compound `CN(C)CCC(C(=O)C(C)(C)C)c1ccccn1` (stereo not given), the TGI in [13], in [8], in [9], in test [10], in test [1] and in test [11] was over 100 µM in each case. In addition, in test [12], the TGI was over 100 µM.
In the case of `C[C@H](O)C(=O)SC[C@H](NC(=O)CC[C@@H](N)C(=O)O)C(=O)NCC(=O)O`, the TGI in [6], in test [2], in test [3], in test [4] and in [5] was over 100 µM each time.
Turning to `COc1c2ccoc2c(S(=O)(=O)Nc2ccc(Cl)cc2)c2oc(C)cc(=O)c12`, the TGI in test [6], in test [2], in test [3], in test [4] and in [7] was over 100 µM throughout.
Turning to `COc1ccc(-n2cc(-c3ccc(OC)c(OC)c3)nc2SCc2ccccc2)cc1Cl`, the GI50 in test [13] was 9.45 µM; in [8] it was 26.9 µM; in [9], 14.9 µM; in [10], 27.8 µM; in test [11], 25.3 µM; in test [12], 27.6 µM. In addition, the TGI in [13] was over 100 µM; in test [8], over 100 µM; in [9] it was 42.5 µM; in test [10], over 100 µM; in test [11] it was over 100 µM; in test [12] it was over 100 µM.
As for `ClCC1(CCl)COC1`, the TGI in [13], in [8], in test [10], in test [11] and in test [12] was over 100 µM throughout.
For the compound `Oc1ccc2ccccc2c1Cc1c(O)ccc2ccccc12`, the TGI stood at 56.4 µM in test [13]; 40.9 µM in test [8]; 33.6 µM in [9]; 31.5 µM in test [10]; 41.7 µM in [1]; 34.4 µM in test [11]. Moreover, in test [12], the TGI was 38.1 µM.
Regarding `CCCC(=O)OCC(O)CO` (stereo not given), the TGI in test [6], in [1], in test [2], in test [3], in test [7] and in test [5] was over 5000 µM each time.
Turning to `C[C@]12CC[C@H](O)CC1=CC[C@@H]1[C@@H]2CC[C@]2(C)C(=O)CC[C@@H]12`, the TGI was over 100 µM in test [13]; over 100 µM in test [9]; over 100 µM in [10]; over 100 µM in test [1]; 97.9 µM in test [11]; over 100 µM in test [12].
Regarding `CO[C@]12C[C@H](CNC(=O)c3cc(Br)c(Br)[nH]3)O[C@H]1NC(=O)N2`, the TGI in test [13], in test [8], in test [9], in [10], in test [1] and in test [11] was over 100 µM throughout. For the same compound, the TGI in [12] was over 100 µM.
